Earlier results in article PMC5588751 (Nanotheranostics, 2017).

Tested on: blood-brain barrier (BBB)
Conditions: [20]

In the case of Ac-SHAVAS-NH2 [HAV4], the “Brain delivery of Gd-DTPA (small molecular weight marker)” value (dose-dependent manner, MRI, ref [17], [18]) is given as “significantly enhanced” and the “Duration of BBB opening for Gd-DTPA (small molecule)” value (pretreatment studies with Gd-DTPA detected by MRI, ref [18]) is given as “less than 1 h”.
